Laboratory results: US20120309622A1, “HERBICIDES CONTAINING SUBSTITUTED THIEN-3-YL-SULPHONYLAMINIO(THIO)CARBONYL-TRIAZOLIN(ETHI)ONES” (BAYER INTELLECTUAL PROPERTY GMBH, priority 2001, published 2012)
Like-named read-outs stand apart in the source and are kept apart here.

Columns and labels:
Experiment in all cases: Post-emergence test/greenhouse, % damage after three weeks
Assay type in all cases: in vivo
Lolium perenne = system: Lolium perenne
Bromus secalinus = system: Bromus secalinus
Procedure: (§1) The expected action for a given combination of two herbicides can be calculated as follows (cf. COLBY, S. R.: “Calculating synergistic and antagonistic responses of herbicide combinations”, Weeds 15, pages 20-22, 1967):
(§2) If the actual damage exceeds the calculated value, the combination has a superadditive effect, that is to say a synergistic effect.
(§3) Test plants are grown under control conditions (temperature and light).
(§4) Following the spray application, the plant containers are kept in the greenhouse under constant light and temperature conditions.
(§5) After three weeks, the degree of damage to the plants is rated in % damage in comparison to the development of the untreated control.

Veronica persicaria = system: Veronica persicaria
Procedure: as §1, §2, §3, §4, §5

Avena fatua = system: Avena fatua
From the text: as §1
(§6) If • X=% damage by herbicide A (active compound of the formula I) at an application rate of p kg/ha and • Y=% damage by herbicide B (active compound of the formula II) at an application rate of q kg/ha and • E=the expected damage of herbicides A+B at an application rate of p+q kg/ha, then
as §2
(§7) Test plants are grown under control conditions (temperature and light). Once the plants have reached a height of 5 to 15 cm, the test compound or the combination of test compounds is applied by spraying such that the particular amounts of active compound desired are applied per unit area. The concentration of the spray liquor is chosen so that the particular amounts of active compound desired are applied in 500 litres of water/ha.
as §4, §5
(§8) The figures denote: • 0%=no effect (like untreated control) • 100%=total destruction

Setaria viridis = system: Setaria viridis
From the text: as §1, §6, §2, §7, §4, §5, §8

Xanthium strumarium = system: Xanthium strumarium
From the text: as §1, §6, §2, §7, §4, §5, §8

Chenopodium album = system: Chenopodium album
From the text: as §1, §6, §2, §7, §4, §5, §8

Cyperus esculentus = system: Cyperus esculentus
From the text: as §1, §6, §2, §7, §4, §5, §8

Alopecurus myosuroides = system: Alopecurus myosuroides
From the text: as §1, §6, §2, §7, §4, §5, §8

Matricaria inodora = system: Matricaria inodora
From the text: as §1, §6, §2, §7, §4, §5, §8

Cassia tora = conditions: 4 g of ai/ha
Procedure: as §1, §2, §3, §4, §5

Polygonum convolvolus = conditions: 15 g of ai/ha
[1] = Bromus secalinus, post-emergence, 504 h, 30 g of ai/ha, read-out: Bromus secalinus observed

CCS(=O)(=O)Nc1cc(-n2nc(C(F)(F)F)n(C)c2=O)c(F)cc1C(N)=S [HWH 4991]
Lolium perenne observed (Lolium perenne; 30 g of ai/ha): 20% | Lolium perenne observed (Lolium perenne; 60 g of ai/ha): 60% | Bromus secalinus observed (Bromus secalinus; 30 g of ai/ha): 20% | Bromus secalinus observed (Bromus secalinus; 60 g of ai/ha): 30% | Veronica persicaria observed (Veronica persicaria; 30 g of ai/ha): 90%

CC(Cl)CC(=O)Nc1c([N+](=O)[O-])cnn1-c1c(Cl)cc(C(F)F)cc1Cl (stereo not shown) [SLA 5599]
Lolium perenne observed (Lolium perenne; 30 g of ai/ha): 0% | Lolium perenne observed (Lolium perenne; 60 g of ai/ha): 30% | Veronica persicaria observed (Veronica persicaria; 30 g of ai/ha): 80% | Avena fatua observed (Avena fatua; 30 g of ai/ha): 0% | Avena fatua observed (Avena fatua; 60 g of ai/ha): 0%

COc1cc(OC)nc(NC(=O)NS(=O)(=O)N(C)S(C)(=O)=O)n1 [amidosulfuron, N-(4,6-di-methoxypyrimidin-2-yl)-N′—(N-methyl-N-methylsulphonylsulphamoyl)urea, reference compound]
pest or weed control at 8 g/ha (Bromus secalinus; Bromus secalinus, post-emergence, 504 h, 8 g of ai/ha, read-out: Bromus secalinus observed): 0% | Avena fatua observed (Avena fatua; 8 g of ai/ha): 0% | Avena fatua observed (Avena fatua; 15 g of ai/ha): 0% | Setaria viridis observed (Setaria viridis; 8 g of ai/ha): 0% | Setaria viridis observed (Setaria viridis; 15 g of ai/ha): 30%

COC(=O)c1cc(Oc2ccc(Cl)cc2Cl)ccc1[N+](=O)[O-] [bifenox, methyl 5-(2,4-dichlorophenoxy)-2-nitrobenzoate, reference compound]
pest or weed control at 60 g/ha (Bromus secalinus; Bromus secalinus, post-emergence, 504 h, 60 g of ai/ha, read-out: Bromus secalinus observed): 0% | pest or weed control at 125 g/ha (Bromus secalinus; Bromus secalinus, post-emergence, 504 h, 125 g of ai/ha, read-out: Bromus secalinus observed): 0% | pest or weed control at 250 g/ha (Bromus secalinus; Bromus secalinus, post-emergence, 504 h, 250 g of ai/ha, read-out: Bromus secalinus observed): 10% | Avena fatua observed (Avena fatua; 60 g of ai/ha): 10% | Avena fatua observed (Avena fatua; 125 g of ai/ha): 10% | Avena fatua observed (Avena fatua; 250 g of ai/ha): 10% | Xanthium strumarium observed (Xanthium strumarium; 60 g of ai/ha): 60% | Xanthium strumarium observed (Xanthium strumarium; 125 g of ai/ha): 60% | Xanthium strumarium observed (Xanthium strumarium; 250 g of ai/ha): 70%

N#Cc1cc(Br)c(O)c(Br)c1 [bromoxynil, 3,5-dibromo-4-hydroxybenzonitrile, reference compound]
Activity against Chenopodium album (%) (Chenopodium album; 250 g of a.i./ha): 80%

CCOC(=O)C(Cl)Cc1cc(-n2nc(C)n(C(F)F)c2=O)c(F)cc1Cl (stereo not shown) [carfentrazone-ethyl, 2-(4-chloro-2-fluoro-5-(2-chloro-2-ethoxycarbonylethyl)phenyl)-4-difluoromethyl-5-methyl-2,4-dihydro-3H-1,2,4-triazol-3-one, reference compound]
Cyperus esculentus observed (Cyperus esculentus; 4 g of ai/ha): 0% | Cyperus esculentus observed (Cyperus esculentus; 8 g of ai/ha): 30% | Chenopodium album observed (Chenopodium album; 2 g of ai/ha): 0% | Chenopodium album observed (Chenopodium album; 4 g of ai/ha): 30% | Chenopodium album observed (Chenopodium album; 8 g of ai/ha): 50% | Alopecurus myosuroides observed (Alopecurus myosuroides; 8 g of ai/ha): 0%

COc1c(Cl)ccc(Cl)c1C(=O)O [dicamba, 3,6-dichloro-2-methoxybenzoic acid, reference compound]
Veronica persicaria observed (Veronica persicaria; 60 g of ai/ha): 40% | Cyperus esculentus observed (Cyperus esculentus; 30 g of ai/ha): 0% | Cyperus esculentus observed (Cyperus esculentus; 125 g of ai/ha): 0% | Alopecurus myosuroides observed (Alopecurus myosuroides; 30 g of ai/ha): 0% | Alopecurus myosuroides observed (Alopecurus myosuroides; 60 g of ai/ha): 0%

C[C@@H](Oc1ccc(Cl)cc1Cl)C(=O)O [dichlorprop-P, (R)-2-(2,4-dichlorophen-oxy)propanoic acid, reference compound]
Matricaria inodora observed (Matricaria inodora; 60 g of ai/ha): 0% | Matricaria inodora observed (Matricaria inodora; 125 g of ai/ha): 0% | Matricaria inodora observed (Matricaria inodora; 250 g of ai/ha): 0% | Avena fatua observed (Avena fatua; 125 g of ai/ha): 0% | Avena fatua observed (Avena fatua; 250 g of ai/ha): 10% | Alopecurus myosuroides observed (Alopecurus myosuroides; 60 g of ai/ha): 0% | Alopecurus myosuroides observed (Alopecurus myosuroides; 125 g of ai/ha): 0% | Alopecurus myosuroides observed (Alopecurus myosuroides; 250 g of ai/ha): 20%

O=C(Nc1ccc(F)cc1F)c1cccnc1Oc1cccc(C(F)(F)F)c1 [diflufenican, N-(2,4-di-fluorophenyl)-2-(3-trifluoromethylphenoxy)pyridine-3-carboxamide, reference compound]
pest or weed control at 30 g/ha (Bromus secalinus; [1]): 10% | Avena fatua observed (Avena fatua; 125 g of ai/ha): 50% | Alopecurus myosuroides observed (Alopecurus myosuroides; 30 g of ai/ha): 50% | Alopecurus myosuroides observed (Alopecurus myosuroides; 60 g of ai/ha): 50% | Alopecurus myosuroides observed (Alopecurus myosuroides; 125 g of ai/ha): 70%

COc1ncc(F)c2nc(S(=O)(=O)Nc3c(F)cccc3F)nn12 [florasulam]
Bromus secalinus observed (Bromus secalinus; 2 g of ai/ha): 30% | Bromus secalinus observed (Bromus secalinus; 4 g of ai/ha): 30% | Cassia tora observed (Cassia tora): 0% | Veronica persicaria observed (Veronica persicaria; 4 g of ai/ha): 70%

CNC1=C(c2cccc(C(F)(F)F)c2)C(=O)C(c2ccccc2)O1 (stereo not shown) [flurtamone]
pest or weed control at 60 g/ha (Bromus secalinus; Bromus secalinus, post-emergence, 504 h, read-out: Bromus secalinus observed): 30% | Matricaria inodora observed (Matricaria inodora; 30 g of ai/ha): 30%

CS(=O)(=O)c1cc(C(F)(F)F)ccc1C(=O)c1cnoc1C1CC1 [isoxaflutole]
pest or weed control at 2 g/ha (Bromus secalinus; Bromus secalinus, post-emergence, 504 h, 2 g of ai/ha, read-out: Bromus secalinus observed): 0% | pest or weed control at 4 g/ha (Bromus secalinus; Bromus secalinus, post-emergence, 504 h, 4 g of ai/ha, read-out: Bromus secalinus observed): 0% | Matricaria inodora observed (Matricaria inodora; 4 g of ai/ha): 70% | Alopecurus myosuroides observed (Alopecurus myosuroides; 2 g of ai/ha): 0% | Alopecurus myosuroides observed (Alopecurus myosuroides; 4 g of ai/ha): 0%

COC(=O)c1ccc(CNS(C)(=O)=O)cc1S(=O)(=O)NC(=O)Nc1nc(OC)cc(OC)n1 [mesosulfuron]
Bromus secalinus observed (Bromus secalinus; 8 g of ai/ha): 0% | Cyperus esculentus observed (Cyperus esculentus; 8 g of ai/ha): 70% | Cyperus esculentus observed (Cyperus esculentus; 15 g of ai/ha): 70%

CS(=O)(=O)c1ccc(C(=O)C2C(=O)CCCC2=O)c([N+](=O)[O-])c1 [mesotrione]
Polygonum convolvolus observed (Polygonum convolvolus): 50% | pest or weed control at 15 g/ha (Bromus secalinus; Bromus secalinus, post-emergence, 504 h, 15 g of ai/ha, read-out: Bromus secalinus observed): 0% | pest or weed control at 30 g/ha (Bromus secalinus; [1]): 0% | Alopecurus myosuroides observed (Alopecurus myosuroides; 15 g of ai/ha): 0% | Alopecurus myosuroides observed (Alopecurus myosuroides; 30 g of ai/ha): 0%

CSc1nnc(C(C)(C)C)c(=O)n1N [metribuzin]
Matricaria inodora observed (Matricaria inodora; 30 g of ai/ha): 0% | Xanthium strumarium observed (Xanthium strumarium; 30 g of ai/ha): 40%
